System: NOMO1
Assay: cell viability relative to DMSO control; higher = less cytotoxic
Details: 48 h
In short: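 Before seeding, each leukemia line was adapted for at least four passages in each medium. NOMO1 or SEM cells (500 cells/well) and P12-Ichikawa cells (1000 cells/well) went into 1536-well plates at 5 μl, then received library compounds in DMSO by pin dosing across 11 threefold concentrations, 47 μM to 0.79 nM. Readout was CellTiter-Glo One luminescence after 48 h at 37°C, and viability is given as a per-plate percentage of DMSO wells, with cell-free wells as background.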

[1] = HPLM + 10% dialyzed FBS, 0.000781 µM
[2] = HPLM + 10% dialyzed FBS, 0.00234 µM
[3] = HPLM + 10% dialyzed FBS, 0.00702 µM
[4] = HPLM + 10% dialyzed FBS, 0.0211 µM
[5] = HPLM + 10% dialyzed FBS, 0.0632 µM
[6] = HPLM + 10% dialyzed FBS, 0.19 µM
[7] = HPLM + 10% dialyzed FBS, 0.569 µM
[8] = HPLM + 10% dialyzed FBS, 1.71 µM
[9] = HPLM + 10% dialyzed FBS, 5.12 µM
[10] = HPLM + 10% dialyzed FBS, 15.4 µM
[11] = HPLM + 10% dialyzed FBS, 46.1 µM
[12] = RPMI 5 mM glucose + 10% FBS, 0.000781 µM
[13] = RPMI 5 mM glucose + 10% FBS, 0.00234 µM
[14] = RPMI 5 mM glucose + 10% FBS, 0.00702 µM
[15] = RPMI 5 mM glucose + 10% FBS, 0.0211 µM
[16] = RPMI 5 mM glucose + 10% FBS, 0.0632 µM
[17] = RPMI 5 mM glucose + 10% FBS, 0.19 µM
[18] = RPMI 5 mM glucose + 10% FBS, 0.569 µM
[19] = RPMI 5 mM glucose + 10% FBS, 1.71 µM
[20] = RPMI 5 mM glucose + 10% FBS, 5.12 µM
[21] = RPMI 5 mM glucose + 10% FBS, 15.4 µM
[22] = RPMI 5 mM glucose + 10% FBS, 46.1 µM
[23] = RPMI 5 mM glucose + 10% dialyzed FBS, 0.000781 µM
[24] = RPMI 5 mM glucose + 10% dialyzed FBS, 0.00234 µM
[25] = RPMI 5 mM glucose + 10% dialyzed FBS, 0.00702 µM
[26] = RPMI 5 mM glucose + 10% dialyzed FBS, 0.0211 µM
[27] = RPMI 5 mM glucose + 10% dialyzed FBS, 0.0632 µM
[28] = RPMI 5 mM glucose + 10% dialyzed FBS, 0.19 µM
[29] = RPMI 5 mM glucose + 10% dialyzed FBS, 0.569 µM
[30] = RPMI 5 mM glucose + 10% dialyzed FBS, 1.71 µM
[31] = RPMI 5 mM glucose + 10% dialyzed FBS, 5.12 µM
[32] = RPMI 5 mM glucose + 10% dialyzed FBS, 15.4 µM
[33] = RPMI 5 mM glucose + 10% dialyzed FBS, 46.1 µM

Row | Structure (SMILES) | cell viability [1] [%] | cell viability [2] [%] | cell viability [3] [%] | cell viability [4] [%] | cell viability [5] [%] | cell viability [6] [%] | cell viability [7] [%] | cell viability [8] [%] | cell viability [9] [%] | cell viability [10] [%] | cell viability [11] [%] | cell viability [12] [%] | cell viability [13] [%] | cell viability [14] [%] | cell viability [15] [%] | cell viability [16] [%] | cell viability [17] [%] | cell viability [18] [%] | cell viability [19] [%] | cell viability [20] [%] | cell viability [21] [%] | cell viability [22] [%] | cell viability [23] [%] | cell viability [24] [%] | cell viability [25] [%] | cell viability [26] [%] | cell viability [27] [%] | cell viability [28] [%] | cell viability [29] [%] | cell viability [30] [%] | cell viability [31] [%] | cell viability [32] [%] | cell viability [33] [%]
1 | C[C@]12CC[C@H]3[C@@H](C\C=C/4C[C@@H](O)CC[C@]34C)[C@@H]1CCC2=O | 115 | 134 | 117 | 121 | 147 | 117 | 111 | 110 | 103 | 110 | 84.7 | 116 | 126 | 116 | 104 | 116 | 105 | 121 | 112 | 117 | 103 | 98 | 120 | 108 | 115 | 119 | 118 | 106 | 114 | 108 | 103 | 109 | 106
2 | CC(O)(C#Cc1ccc2c(c1)N(c1nc(N)ncc1Cl)CC2)c1nccs1 (stereo not drawn) | 98.7 | 119 | 132 | 104 | 130 | 131 | 130 | 134 | 152 | 136 | 87.5 | – | – | – | – | – | – | – | – | – | – | – | 124 | 113 | 136 | 131 | 135 | 135 | 135 | 127 | 138 | 147 | 110
3 | COC[C@H](c1ccc(C(F)(F)F)cc1)N1CCN(C2(C)CCN(C(=O)c3c(C)ncnc3C)CC2)C[C@H]1C.O=C(O)/C=C\C(=O)O | 85.7 | 106 | 106 | 107 | 114 | 99.8 | 111 | 70.7 | 63.5 | 62.2 | 49.9 | 87.9 | 95.7 | 101 | 97.5 | 93.8 | 103 | 91 | 83.8 | 65.1 | 56.3 | 62.8 | 83.9 | 108 | 92 | 104 | 99.8 | 105 | 101 | 91.8 | 75 | 50.9 | 51.7
4 | CN1C(=O)C[C@H](C(=O)N[C@@H](Cc2cnc[nH]2)C(=O)N2CCC[C@H]2C(N)=O)NC1=O | 119 | 122 | 109 | 113 | 116 | 125 | 126 | 130 | 104 | 108 | 107 | 126 | 115 | 121 | 119 | 126 | 132 | 114 | 124 | 116 | 115 | 114 | – | – | – | – | – | – | – | – | – | – | –
5 | CCC(=C/[C@H](C)C/C=C/C(C)=C/[C@@H](C)C(=O)[C@@H](C)[C@H](O)[C@@H](C)C/C(C)=C/C(=O)O)/C=C/[C@@H]1OC(=O)C=C[C@@H]1C | 118 | 115 | 109 | 107 | 118 | 123 | 125 | 83.8 | 4.07 | 2.4 | 13.2 | 104 | 101 | 110 | 99.2 | 114 | 114 | 109 | 110 | 3.02 | 1.72 | 14.7 | 99.7 | 108 | 113 | 107 | 122 | 120 | 120 | 90.2 | 3.22 | 2.11 | 14.7
6 | CN(C)CCOc1ccc(-c2nc(-c3ccncc3)c(-c3ccc4c(c3)CC/C4=N\O)[nH]2)cc1 | 98.1 | 113 | 102 | 110 | 127 | 129 | 129 | 107 | 95.3 | 95.2 | 62.9 | 97 | 101 | 95 | 104 | 118 | 112 | 97.2 | 95.5 | 104 | 86.9 | 81.4 | 108 | 105 | 121 | 106 | 119 | 121 | 115 | 106 | 85.5 | 85.4 | 53.8
7 | CC[C@@]1(O)C(=O)OC\C2=C1\C=C\3N(CC4=C3N=C5C=CC=CC5=C4)C2=O | 122 | 115 | 145 | 120 | 80.4 | 30.3 | 30.7 | 28.6 | 21.1 | 14.9 | 25.7 | 117 | 106 | 120 | 106 | 77.5 | 22.3 | 20.8 | 20.4 | 11.9 | 16.7 | 17.9 | 126 | 110 | 121 | 103 | 76.5 | 28.9 | 28.6 | 27.5 | 21.9 | 22.4 | 14
8 | O=C1Nc2ccc(I)cc2/C1=C/c1cc(Br)c(O)c(Br)c1 | 111 | 96.5 | 109 | 106 | 109 | 111 | 98.6 | 99.9 | 118 | 101 | 78.9 | 86.6 | 98.1 | 96.5 | 102 | 96.2 | 100 | 96.8 | 97.6 | 102 | 88.6 | 83 | 95.4 | 93.3 | 90.9 | 92.8 | 92 | 85.9 | 104 | 96.8 | 101 | 95.3 | 76.6
9 | NCCCCNCCCN | 110 | 101 | 119 | 112 | 109 | 95.3 | 116 | 121 | 105 | 67.1 | 26.7 | 108 | 99.6 | 98.2 | 104 | 99.4 | 104 | 94.8 | 99.1 | 105 | 103 | 27.7 | 107 | 104 | 111 | 107 | 107 | 105 | 110 | 115 | 119 | 109 | 35.4
10 | Nc1ncnc2ccccc12 | 77.8 | 100 | 100 | 35.2 | 97.8 | 87 | 88.3 | 101 | 88.4 | 105 | 105 | 84.2 | 85.9 | 87.6 | 18.6 | 97.6 | 91.4 | 101 | 95.4 | 88.3 | 90.9 | 81.7 | 88.1 | 84.1 | 79.2 | 44.1 | 81.6 | 86.7 | 89 | 89.9 | 90.6 | 98.4 | 96
11 | Cc1cc(Nc2cc(CN3CCOCC3)c3nc(C)c(Cc4ccc(Cl)cc4F)n3n2)[nH]n1 | 114 | 121 | 130 | 114 | 137 | 115 | 101 | 110 | 99.7 | 53.5 | 48.3 | 103 | 98.2 | 103 | 111 | 95.4 | 114 | 94 | 94.7 | 91.7 | 36.7 | 28.2 | 102 | 111 | 119 | 115 | 115 | 106 | 109 | 97.3 | 92 | 45 | 34.3
12 | C/C(O)=C(\C#N)C(=O)Nc1cc(Br)ccc1Br | 111 | 119 | 98.3 | 115 | 88.3 | 104 | 98.3 | 96.6 | 98.8 | 90.7 | 78.3 | 96.4 | 93.7 | 94.6 | 99.2 | 94 | 92.5 | 96.2 | 90 | 83 | 88 | 82.3 | 95.3 | 96 | 102 | 102 | 94.1 | 102 | 90 | 83.4 | 82.5 | 93.3 | 78
13 | CC/1=C(/C(CC(=O)N1)C2=CC=C(C=C2)C(F)(F)F)C(=O)NC3=C(F)C=C4[NH]N=CC4=C3 (stereo not drawn) | 94.2 | 94.5 | 103 | 108 | 104 | 100 | 105 | 98.6 | 96.1 | 33.6 | 11.5 | 92 | 92.7 | 85.7 | 81.2 | 89.6 | 86 | 86.9 | 82.4 | 84.2 | 66.7 | 23.9 | 91.7 | 89.1 | 104 | 96.1 | 95 | 84.7 | 97.5 | 95.3 | 92.1 | 58 | 28
14 | C=CC(=O)Nc1cccc(Nc2nc(NC3CCC(N(C)C)CC3)nc3c2ncn3C(C)C)c1 (stereo not drawn) | 96.7 | 120 | 114 | 94.7 | 111 | 109 | 125 | 73.8 | 7.49 | 5.11 | 4.77 | 127 | 111 | 115 | 100 | 103 | 104 | 99.6 | 98.2 | 11.9 | 5.39 | 3.68 | 103 | 98.2 | 103 | 103 | 106 | 105 | 105 | 72.9 | 7.93 | 5.45 | 4.26
15 | CCOC(=O)c1cncn1[C@H](C)c1ccccc1 | – | – | – | – | – | – | – | – | – | – | – | 118 | 116 | 135 | 128 | 112 | 115 | 121 | 127 | 117 | 119 | 125 | – | – | – | – | – | – | – | – | – | – | –
16 | COC1=C2C[C@@H](C)C[C@H](OC)[C@H](O)[C@@H](C)/C=C(\C)[C@H](OC(N)=O)[C@@H](OC)/C=C/C=C(\C)C(=O)NC(=CC1=O)C2=O | – | – | – | – | – | – | – | – | – | – | – | 108 | 119 | 104 | 119 | 109 | 111 | 109 | 110 | 101 | 80.4 | 4.86 | 112 | 111 | 123 | 113 | 115 | 114 | 113 | 121 | 123 | 81.3 | 5.45
